We go through one compound from BindingDB's records for doi:10.7270/Q2NP26K8 (n/a, 1992).

What all share (assay): Inhibition of guinea pig heart Phosphodiesterase 3
Experiment [1] concerns the target PDE3 (Cavia porcellus).
Experiment [2] addresses PDE3 (Cavia porcellus). This is another data set of the same source.
Experiment [3] has as its target PDE3 (Cavia porcellus). This is another data set of the same source.

As to `COc1ccc(C(=O)N2CCCc3cc(C4=NNC(=O)S[C@@H]4C)ccc32)cc1OC`, the IC50 (in general, the midpoint of a concentration-inhibition curve) turned out to be 60 nM against PDE3 (Cavia porcellus) [1], 50 nM on PDE3 (Cavia porcellus) [2] and 60 nM against PDE3 (Cavia porcellus) [3].
